From the supplement of paper PMC10307832

Experiments:
Experiment in all cases: relative viability (nuclei count vs DMSO), 5 days (fraction); higher = more cells survive
Bosutinib + Trametinib = compound: COc1cc(Nc2c(C#N)cnc3cc(OCCCN4CCN(C)CC4)c(OC)cc23)c(Cl)cc1Cl [Bosutinib] + CC(=O)Nc1cccc(-n2c(=O)n(C3CC3)c(=O)c3c(Nc4ccc(I)cc4F)n(C)c(=O)c(C)c32)c1 [Trametinib] (partner 0.02 µM)
Summary of the method: (§1)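 A single step with final 0.05% Triton X-100, 1% formaldehyde and 1 ug/ml Hoechst fixed the cells and stained nuclei 5 days after treatment. Lung cancer cell lines in 1536-well plates had been treated by pin tool the day after seeding with one drug alone or a fixed anchor-drug dose plus five library-drug doses (not always all listed) in √10 steps, and nuclei were counted on 4× images. Relative viability is the ratio of nuclei in treated wells to nuclei in vehicle wells, taken as the median of duplicate plates.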

Bosutinib + Pictilisib = compound: COc1cc(Nc2c(C#N)cnc3cc(OCCCN4CCN(C)CC4)c(OC)cc23)c(Cl)cc1Cl [Bosutinib] + CS(=O)(=O)N1CCN(Cc2cc3nc(-c4cccc5[nH]ncc45)nc(N4CCOCC4)c3s2)CC1 [Pictilisib] (partner 1 µM)
Summary of the method: as §1

Bosutinib + Palbociclib = compound: COc1cc(Nc2c(C#N)cnc3cc(OCCCN4CCN(C)CC4)c(OC)cc23)c(Cl)cc1Cl [Bosutinib] + CC(=O)c1c(C)c2cnc(Nc3ccc(N4CCNCC4)cn3)nc2n(C2CCCC2)c1=O [Palbociclib] (partner 0.5 µM)
Summary of the method: as §1

Bosutinib + Lapatinib = compound: COc1cc(Nc2c(C#N)cnc3cc(OCCCN4CCN(C)CC4)c(OC)cc23)c(Cl)cc1Cl [Bosutinib] + CS(=O)(=O)CCNCc1ccc(-c2ccc3ncnc(Nc4ccc(OCc5cccc(F)c5)c(Cl)c4)c3c2)o1 [Lapatinib] (partner 2 µM)
Summary of the method: as §1

Bosutinib + Luminespib = compound: COc1cc(Nc2c(C#N)cnc3cc(OCCCN4CCN(C)CC4)c(OC)cc23)c(Cl)cc1Cl [Bosutinib] + CCNC(=O)c1noc(-c2cc(C(C)C)c(O)cc2O)c1-c1ccc(CN2CCOCC2)cc1 [Luminespib] (partner 0.01 µM)
Summary of the method: as §1

Cell Line	relative viability (Bosutinib + Trametinib; first compound 0.01 µM)	relative viability (Bosutinib + Trametinib; first compound 0.03162 µM)	relative viability (Bosutinib + Trametinib; first compound 0.1 µM)	relative viability (Bosutinib + Trametinib; first compound 1 µM)	relative viability (Bosutinib + Pictilisib; first compound 0.01 µM)	relative viability (Bosutinib + Pictilisib; first compound 0.03162 µM)	relative viability (Bosutinib + Pictilisib; first compound 0.1 µM)	relative viability (Bosutinib + Pictilisib; first compound 1 µM)	relative viability (Bosutinib + Palbociclib; first compound 0.01 µM)	relative viability (Bosutinib + Palbociclib; first compound 0.03162 µM)	relative viability (Bosutinib + Palbociclib; first compound 0.1 µM)	relative viability (Bosutinib + Palbociclib; first compound 1 µM)	relative viability (Bosutinib + Lapatinib; first compound 0.01 µM)	relative viability (Bosutinib + Lapatinib; first compound 0.03162 µM)	relative viability (Bosutinib + Lapatinib; first compound 0.1 µM)	relative viability (Bosutinib + Lapatinib; first compound 1 µM)	relative viability (Bosutinib + Luminespib; first compound 0.01 µM)	relative viability (Bosutinib + Luminespib; first compound 0.03162 µM)	relative viability (Bosutinib + Luminespib; first compound 0.1 µM)	relative viability (Bosutinib + Luminespib; first compound 1 µM)
HCC-78	0.84	0.712	0.768	0.725	0.2	0.196	0.269	0.301	0.457	0.425	0.506	0.435	0.468	0.798	0.817	0.7	–	–	–	–
HCC-366	0.319	0.226	0.326	0.215	0.154	0.144	0.181	0.121	0.423	0.365	0.375	0.247	1.16	0.942	0.939	0.884	–	–	–	–
HCC-827	0.55	0.6	0.594	0.18	0.971	0.763	1.12	0.749	0.439	0.473	0.469	0.196	0.167	0.25	0.19	0.169	0.709	0.589	0.525	0.174
HOP-62	0.377	0.425	0.401	0.354	0.898	0.787	0.698	0.819	0.378	0.487	0.473	0.447	0.977	1.12	1.08	1.01	0.993	0.895	0.937	0.904
IA-LM	–	–	–	–	–	0.365	0.317	0.359	–	–	–	–	0.811	0.848	0.92	0.798	–	–	–	–
LC-2-ad	0.953	0.898	0.892	0.859	0.571	0.45	0.459	0.419	0.498	0.507	0.522	0.478	0.99	0.92	1.05	1.01	1.05	0.924	0.978	1.01
LCLC-97TM1	0.201	0.209	0.192	0.179	0.182	0.221	0.254	0.267	0.224	0.245	0.256	0.2	1.43	1.29	1.24	1.14	0.871	0.744	0.74	0.746
LCLC-103H	0.747	0.685	0.672	0.656	0.632	0.68	0.702	0.646	0.497	0.498	0.452	0.491	–	–	–	–	0.958	0.933	1.02	0.975
LK-2	0.873	0.784	0.667	0.672	0.645	0.603	0.577	0.378	0.681	0.636	0.584	0.66	0.848	1.12	0.944	0.803	0.199	0.171	0.19	0.209
